Ki and inhibition data for 20 compounds are collected here from patent US8058475B2, “Substituted cyclohexylmethyl compounds” (Gruenenthal GmbH, priority 2005, dated 2011).

In assay [1] the target is T1, Noradrenaline (NA) reuptake (Rattus norvegicus, UniProt Q63380).
T1 construct: synaptosomes are freshly isolated from areas of rat brain; from tissue; host or cells: rat hypothalamus synaptosomes (P2 fraction)
In words: Noradrenaline (NA) reuptake inhibition in rat brain synaptosomes (hypothalamus, P2 fraction). Format: biochemical. An excerpt:
(§1) Noradrenaline (NA) and Serotonin (5HT) Reuptake Inhibition
(§2) In order to be able to carry out these studies in vitro, synaptosomes are freshly isolated from areas of rat brain. A so-called “P2” fraction prepared by the method of Gray and Whittaker (E. G. Gray and V. P. Whittaker (1962) J. Anat. 76, 79-88) is used in each case. For the NA uptake, these vesicular particles are isolated from the hypothalamus of male rat brains.
(§3) A detailed description of the method will be found in the literature (M. Ch. Frink, H. H. Hennies, W. Englberger, M. Haurand and B. Wilffert (1996) Arzneim.-Forsch./Drug Res. 46 (III), 11, 1029-1036).

A further assay addresses T2, Serotonin (5HT) reuptake (Rattus norvegicus, UniProt P31652).
T2 construct: synaptosomes are freshly isolated from areas of rat brain; from tissue; host or cells: rat brain synaptosomes (P2 fraction)
In words: Serotonin (5HT) reuptake inhibition in rat brain synaptosomes (P2 fraction). Type of assay: biochemical. The following applies: for inhibition at 10 µM: read-out: Serotonin reuptake, % inhibition [10 μM].
Excerpt: as §1, §2, §3

The next assay concerns the target human μ-opiate receptor (Homo sapiens, UniProt P35372). Nature of the assay: Affinity for the human μ-opiate receptor ([3H]-naloxone displacement, SPA, CHO-K1 membrane preparation). Format: binding. The following applies: for inhibition at 1 µM: read-out: μ-Opioid receptor, % inhibition [1 μM]; for Ki: read-out: μ-Opioid receptor, Ki.
Where [2] appears, read: read-out: Na reuptake, % inhibition [10 μM].
[3] abbreviates: read-out: NA reuptake, % inhibition [10 μM].
Setting [4] is: 1 μM test substance, inhibition of specific [3H]-naloxone binding.
Setting [5] is: [3H]-naloxone, human μ-opiate receptor membranes.

Counter-ions that a name gives are not always drawn. Like-named read-outs stand apart in the source and are kept apart here.

T1 sequence (Q63380 1-617): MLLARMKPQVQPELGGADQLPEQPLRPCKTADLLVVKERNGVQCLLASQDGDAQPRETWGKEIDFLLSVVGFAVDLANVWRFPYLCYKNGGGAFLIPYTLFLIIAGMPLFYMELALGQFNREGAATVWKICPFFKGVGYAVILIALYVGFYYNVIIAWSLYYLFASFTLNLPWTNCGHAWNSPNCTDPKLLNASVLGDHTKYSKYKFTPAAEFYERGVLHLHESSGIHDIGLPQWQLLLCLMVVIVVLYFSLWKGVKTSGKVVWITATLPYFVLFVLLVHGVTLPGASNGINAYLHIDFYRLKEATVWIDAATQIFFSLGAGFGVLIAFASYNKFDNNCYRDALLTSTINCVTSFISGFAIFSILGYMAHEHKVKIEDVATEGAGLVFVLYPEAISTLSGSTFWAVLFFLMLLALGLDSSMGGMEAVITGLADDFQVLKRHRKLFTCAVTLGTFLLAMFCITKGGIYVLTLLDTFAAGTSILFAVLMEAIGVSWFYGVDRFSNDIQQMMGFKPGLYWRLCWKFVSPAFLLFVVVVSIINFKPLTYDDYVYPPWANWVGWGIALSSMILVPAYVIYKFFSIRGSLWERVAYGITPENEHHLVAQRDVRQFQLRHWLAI
T2 sequence (P31652 whole entry): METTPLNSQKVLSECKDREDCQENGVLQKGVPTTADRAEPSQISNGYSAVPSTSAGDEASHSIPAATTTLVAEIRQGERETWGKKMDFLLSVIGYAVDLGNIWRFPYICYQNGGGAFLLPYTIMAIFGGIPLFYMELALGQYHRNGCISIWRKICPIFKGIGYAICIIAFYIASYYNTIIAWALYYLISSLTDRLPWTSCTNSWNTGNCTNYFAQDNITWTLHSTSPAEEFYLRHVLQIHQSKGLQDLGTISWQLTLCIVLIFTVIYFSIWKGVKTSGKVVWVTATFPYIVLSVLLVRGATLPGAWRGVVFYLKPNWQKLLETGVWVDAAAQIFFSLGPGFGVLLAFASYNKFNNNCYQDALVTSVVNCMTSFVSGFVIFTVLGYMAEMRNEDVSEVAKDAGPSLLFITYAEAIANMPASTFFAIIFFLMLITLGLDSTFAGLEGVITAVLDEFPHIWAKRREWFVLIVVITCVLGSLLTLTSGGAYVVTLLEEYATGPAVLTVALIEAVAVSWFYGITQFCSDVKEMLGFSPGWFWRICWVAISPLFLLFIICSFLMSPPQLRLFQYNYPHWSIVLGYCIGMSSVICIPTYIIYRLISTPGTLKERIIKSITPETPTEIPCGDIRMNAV
Sequence of human μ-opiate receptor (P35372 whole entry): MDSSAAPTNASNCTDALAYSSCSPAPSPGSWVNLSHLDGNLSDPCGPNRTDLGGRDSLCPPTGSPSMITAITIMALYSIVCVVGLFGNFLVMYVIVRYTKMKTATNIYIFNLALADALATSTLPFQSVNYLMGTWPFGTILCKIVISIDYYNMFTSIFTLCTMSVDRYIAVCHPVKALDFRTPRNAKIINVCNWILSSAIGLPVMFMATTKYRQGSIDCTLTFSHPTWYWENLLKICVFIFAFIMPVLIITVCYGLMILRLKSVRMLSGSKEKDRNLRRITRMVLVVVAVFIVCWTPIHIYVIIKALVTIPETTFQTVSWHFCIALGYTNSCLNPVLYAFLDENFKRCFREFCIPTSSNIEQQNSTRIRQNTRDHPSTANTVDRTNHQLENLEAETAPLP

With `CC(=O)N(Cc1ccccc1)C1CCC(C(c2ccccc2)N(C)C)CC1` (stereo not shown) [compound 100, N-benzyl-N-(4-((dimethylamino)(phenyl)methyl)cyclohexyl)acetamide hydrochloride], the Ki (in general, the dissociation constant of the complex between target and ligand, obtained from inhibition or displacement) in assay [1] worked out at 320 nM; on Serotonin (5HT) reuptake it was 520 nM; on human μ-opiate receptor it was 3.5 nM. Also, the results for the inhibition at 10 µM (in assay [1] (setting [2]); at Serotonin (5HT) reuptake) were 91% and 86%, respectively. Besides, on human μ-opiate receptor, the inhibition (as a rule, the change of the read-out against control, counted positive when it falls) at 1 µM is 100%.
Regarding `CCOC(=O)C=C1CCC(C(c2ccc(F)cc2)N(C)C)CC1` (stereo not shown) [compound 126, {4-[dimethylamino-(4-fluorophenyl)-methyl]-cyclohexylidene}-acetic acid ethyl ester], the inhibition at 10 µM in assay [1] (setting [3]) was 81%; on Serotonin (5HT) reuptake, 86%. For the same compound, the inhibition at 1 µM at human μ-opiate receptor (setting [4]) came to 35%.
As for `CCC(CC)C(=O)N(c1ccccc1)C1CCC(C(c2ccccc2)N(C)C)CC1` (stereo not shown) [compound 105, N-(4-((dimethylamino)(phenyl)methyl)cyclohexyl)-2-ethyl-N-phenylbutanamide hydrochloride], the inhibition at 10 µM in assay [1] (setting [2]) was 88%. The inhibition at 10 µM at Serotonin (5HT) reuptake was 85%. For the same compound, at human μ-opiate receptor, the inhibition at 1 µM stood at 100% and the Ki was 20 nM.
Turning to `CN(C)C(c1ccc(Cl)cc1)C1CCC(CN)CC1` (stereo not shown) [compound 39, [(4-aminomethyl-cyclohexyl)-(4-chlorophenyl)-methyl]-dimethylamine], the inhibition at 10 µM in assay [1] (setting [3]) was 97%; at Serotonin (5HT) reuptake, 87%. In addition, the inhibition at 1 µM at human μ-opiate receptor (setting [4]) turned out to be 56%.
In the case of `CN(C)C(c1ccccc1)C1CCC(Nc2ccccc2)CC1` (stereo not shown) [compound 92, N-(4-((dimethylamino)(phenyl)methyl)cyclohexyl)benzenamine hydrochloride], the inhibition at 10 µM was found to be 75% in assay [1] (setting [3]) and 69% at Serotonin (5HT) reuptake. Besides, the inhibition at 1 µM on human μ-opiate receptor (setting [4]) was 91%. Besides, the Ki at human μ-opiate receptor was found to be 17 nM.
Consider `CN(C)C(c1cccs1)C1CCC(N)CC1` (stereo not shown) [compound 25, 4-(dimethylamino-thiophen-2-yl-methyl)-cyclohexylamine], for which the inhibition at 10 µM in assay [1] (setting [3]) was 84%; at Serotonin (5HT) reuptake, 71%. Besides, the inhibition at 1 µM on human μ-opiate receptor (setting [4]) is 74%. Moreover, the Ki at human μ-opiate receptor (setting [5]) worked out at 260 nM.
`CN(C)C(c1cccc(F)c1)C1CCC(CO)CC1` (stereo not shown) [compound 119, {4-[dimethylamino-(3-fluorophenyl)-methyl]-cyclohexyl}-methanol]: the inhibition at 10 µM in assay [1] (setting [3]) stood at 91%; on Serotonin (5HT) reuptake it was 88%. The inhibition at 1 µM at human μ-opiate receptor (setting [4]) was determined as 43%.
For `CN(C)C(c1ccc(F)cc1)C1CCC(CC=O)CC1` (stereo not shown) [compound 49, {4-[Dimethylamino-(4-fluorophenyl)-methyl]-cyclohexyl}-acetaldehyde], the inhibition at 10 µM in assay [1] (setting [3]) is 97%; on Serotonin (5HT) reuptake, 93%. Further, on human μ-opiate receptor (setting [4]), the inhibition at 1 µM came to 34%.
As for `CN(C)C(c1ccccc1)C1CCC(N)CC1` (stereo not shown) [compound 17, 4-(dimethylamino-phenyl-methyl)-cyclohexylamine], the Ki in assay [1] (rat brain synaptosomes (hypothalamus), read-out: NA reuptake, Ki) worked out at 870 nM; at Serotonin (5HT) reuptake (rat brain synaptosomes, read-out: Serotonin reuptake, Ki), 860 nM; on human μ-opiate receptor (setting [5]), 440 nM. The inhibition at 10 µM amounted to 92% in assay [1] (setting [3]) and 86% on Serotonin (5HT) reuptake. In addition, at human μ-opiate receptor (setting [4]), the inhibition at 1 µM stood at 83%.
Consider `CN(C)C(c1cccc(F)c1)C1CCC(C=O)CC1` (stereo not shown) [compound 34, 4-[Dimethylamino-(3-fluorophenyl)-methyl]-cyclohexane-carbaldehyde], for which the inhibition at 10 µM (in assay [1] (setting [3]); at Serotonin (5HT) reuptake) was 87% in each case. Also, the inhibition at 1 µM on human μ-opiate receptor (setting [4]) is 34%.
For the compound `CN(C)C(c1ccccc1)C1CCC(NS(=O)(=O)c2ccccc2[N+](=O)[O-])CC1` (stereo not shown) [compound 109, N-(4-((dimethylamino)(phenyl)methyl)cyclohexyl)-2-nitrobenzene-sulfonamide hydrochloride], the inhibition at 10 µM in assay [1] (setting [3]) is 76%; at Serotonin (5HT) reuptake, 93%. Moreover, the inhibition at 1 µM at human μ-opiate receptor (1 μM, sulfonamides (Table 17)) amounted to 92%. On human μ-opiate receptor (sulfonamides (Table 17)), the Ki was 77 nM.
Take `CN(C)C(c1cccs1)C1CCC(O)CC1` (stereo not shown) [compound 115, 4-(dimethylamino-thiophen-2-yl-methyl)-cyclohexanol]: the values for the inhibition at 10 µM (in assay [1] (setting [3]); on Serotonin (5HT) reuptake) were 47% and 63%, respectively. The inhibition at 1 µM on human μ-opiate receptor (setting [4]) came out at 61%.
As for `CN(C)C(c1cccc(F)c1)C1CCC(CCN)CC1` (stereo not shown) [compound 54, 2-{4-[dimethylamino-(3-fluorophenyl)-methyl]-cyclohexyl}-ethylamine], the inhibition at 10 µM in assay [1] (setting [3]) is 102%; on Serotonin (5HT) reuptake, 94%. In addition, the inhibition at 1 µM at human μ-opiate receptor (setting [4]) stood at 62%.
The corresponding values for `CN(C)C(c1ccccc1)C1CCC(NC(=O)Nc2ccccc2[N+](=O)[O-])CC1` (stereo not shown) [compound 76, 1-(4-((dimethylamino)(phenyl)methyl)cyclohexyl)-3-(2-nitrophenyl)urea hydrochloride] are 100%, 84% and 61%.
In the case of `COc1ccc(CNC2CCC(C(c3ccccc3)N(C)C)CC2)cc1` (stereo not shown) [compound 90, 4-((dimethylamino)(phenyl)methyl)-N-(4-methoxybenzyl)cyclohexanamine dihydrochloride], the results for the inhibition at 10 µM (in assay [1] (setting [3]); at Serotonin (5HT) reuptake) were 98% and 87%, respectively. Moreover, on human μ-opiate receptor (setting [4]), the inhibition at 1 µM turned out to be 94%. The Ki on human μ-opiate receptor turned out to be 45 nM.
As to `CCOC(=O)C=CC1CCC(C(c2ccccc2)N(C)C)CC1` (stereo not shown) [compound 132, 3-[4-(dimethylamino-phenyl-methyl)-cyclohexyl]-acrylic acid ethyl ester], the values for the Ki (in assay [1]; at Serotonin (5HT) reuptake; on human μ-opiate receptor) were 590 nM, 420 nM and 120 nM, respectively. Further, the inhibition at 10 µM in assay [1] (setting [3]) was determined as 84%; at Serotonin (5HT) reuptake it was 86%. On human μ-opiate receptor (setting [4]), the inhibition at 1 µM is 91%.
As to `CN(C)C(c1cccs1)C1CCC(CN)CC1` (stereo not shown) [compound 42, [(4-aminomethyl-cyclohexyl)-thiophen-2-yl-methyl]-dimethylamine], the inhibition at 10 µM in assay [1] (setting [3]) turned out to be 83%; on Serotonin (5HT) reuptake, 86%. Also, the inhibition at 1 µM on human μ-opiate receptor (setting [4]) was 80%. Further, the Ki at human μ-opiate receptor (setting [5]) worked out at 240 nM.
With `CCOC(=O)CC1CCC(C(c2ccc(F)cc2)N(C)C)CC1` (stereo not shown) [compound 127, {4-[dimethylamino-(4-fluorophenyl)-methyl]-cyclohexyl}-acetic acid ethyl ester], the inhibition at 10 µM in assay [1] (setting [3]) came out at 89%; on Serotonin (5HT) reuptake, 90%. Moreover, the inhibition at 1 µM at human μ-opiate receptor (setting [4]) is 34%.
`COc1ccc(N(C(C)=O)C2CCC(C(c3ccccc3)N(C)C)CC2)cc1` (stereo not shown) [compound 99, N-(4-((dimethylamino)(phenyl)methyl)cyclohexyl)-N-(4-methoxyphenyl)-acetamide hydrochloride]: the inhibition at 10 µM in assay [1] (setting [2]) worked out at 75%. Moreover, at Serotonin (5HT) reuptake, the Ki came to 540 nM and the inhibition at 10 µM worked out at 83%. On human μ-opiate receptor, the inhibition at 1 µM was 77% and the Ki was 470 nM.
Consider `CN(C)C(c1ccccc1)C1CCC(OCc2ccc(F)cc2)CC1` (stereo not shown) [compound 145, 4-(4-fluorobenzyloxy)cyclohexyl)-N,N-dimethyl(phenyl)methanamine hydrochloride], for which the inhibition at 10 µM is 84% in assay [1] (setting [3]) and 83% at Serotonin (5HT) reuptake. Besides, the values for the Ki at Serotonin (5HT) reuptake and at human μ-opiate receptor were 290 nM and 310 nM, respectively. On human μ-opiate receptor (setting [4]), the inhibition at 1 µM amounted to 73%.
